US9453026B2, “ACC inhibitors and uses thereof” (Gilead Apollo, Inc., priority 2011, dated 2016)

Tests used:
[1] = molecular target: ACC1 (Homo sapiens, UniProt Q13085); assay: In vitro ACC1 inhibition assay (ADP-Glo); type: biochemical; conditions: read-out: ACC1
Experimental: An exemplary procedure for the in vitro ACC inhibition assay, which can be used to determine the inhibitory action of compounds of the invention toward either ACC1 or ACC2, follows. The ADP-Glo™ Kinase Assay kit from Promega was used. The ADP-Glo™ Kinase Assay is a luminescent ADP detection assay to measure enzymatic activity by quantifying the amount of ADP produced during an enzyme reaction. The assay is performed in two steps; first, after the enzyme reaction, an equal volume of ADP-Glo™ Reagent is added to terminate the reaction and deplete the remaining ATP. Second, the Kinase Detection Reagent is added to simultaneously convert ADP to ATP and allow the newly synthesized ATP to be measured using a luciferase/luciferin reaction. Luminescence can be correlated to ADP concentrations by using an ATP-to-ADP conversion curve. The detailed procedure is as follows. 50 μL of the compound being tested (600 uM in DMSO) was added to a 384-well dilution plate. The compound was diluted 1:3 in succession in DMSO for each row for 11 wells. 0.5 μL ACC2 working solution was added to 384-well white Optiplate assay plate. 0.5 μL diluted compound solution in each column from step 2 to assay plate, each row containing 2 replicates. […] The plates were incubated at room temperature for 15 minutes. 5 μL substrate working solution was added to each well to initiate reaction. […] Plates were incubated at room temperature for 60 minutes. 10 μL ADP glo reagent was added. Plates were incubated at room temperature for 40 minutes. 20 μL kinase detection reagent was added.
Data for each concentration, as well as the positive and negative controls were averaged, and the standard deviation calculated. Percent inhibition was calculated by the formula: 100× (average negative control−compound)/(average negative control−average positive control). The IC50 for each compound was calculated by fitting the data with a non-linear regression equation: Y=Bottom+(Top-Bottom)/(1+10^((Log IC50−X)*HillSlope)), where X is the log of compound concentration and Y is percent inhibition.
The compound numbers correspond to the compound numbers in Table 1.

[2] = molecular target: ACC2 (Homo sapiens, UniProt O00763); assay: In vitro ACC2 inhibition assay (ADP-Glo); type: biochemical; conditions: read-out: ACC2
Sequence of ACC2 (O00763 whole entry, species assumed): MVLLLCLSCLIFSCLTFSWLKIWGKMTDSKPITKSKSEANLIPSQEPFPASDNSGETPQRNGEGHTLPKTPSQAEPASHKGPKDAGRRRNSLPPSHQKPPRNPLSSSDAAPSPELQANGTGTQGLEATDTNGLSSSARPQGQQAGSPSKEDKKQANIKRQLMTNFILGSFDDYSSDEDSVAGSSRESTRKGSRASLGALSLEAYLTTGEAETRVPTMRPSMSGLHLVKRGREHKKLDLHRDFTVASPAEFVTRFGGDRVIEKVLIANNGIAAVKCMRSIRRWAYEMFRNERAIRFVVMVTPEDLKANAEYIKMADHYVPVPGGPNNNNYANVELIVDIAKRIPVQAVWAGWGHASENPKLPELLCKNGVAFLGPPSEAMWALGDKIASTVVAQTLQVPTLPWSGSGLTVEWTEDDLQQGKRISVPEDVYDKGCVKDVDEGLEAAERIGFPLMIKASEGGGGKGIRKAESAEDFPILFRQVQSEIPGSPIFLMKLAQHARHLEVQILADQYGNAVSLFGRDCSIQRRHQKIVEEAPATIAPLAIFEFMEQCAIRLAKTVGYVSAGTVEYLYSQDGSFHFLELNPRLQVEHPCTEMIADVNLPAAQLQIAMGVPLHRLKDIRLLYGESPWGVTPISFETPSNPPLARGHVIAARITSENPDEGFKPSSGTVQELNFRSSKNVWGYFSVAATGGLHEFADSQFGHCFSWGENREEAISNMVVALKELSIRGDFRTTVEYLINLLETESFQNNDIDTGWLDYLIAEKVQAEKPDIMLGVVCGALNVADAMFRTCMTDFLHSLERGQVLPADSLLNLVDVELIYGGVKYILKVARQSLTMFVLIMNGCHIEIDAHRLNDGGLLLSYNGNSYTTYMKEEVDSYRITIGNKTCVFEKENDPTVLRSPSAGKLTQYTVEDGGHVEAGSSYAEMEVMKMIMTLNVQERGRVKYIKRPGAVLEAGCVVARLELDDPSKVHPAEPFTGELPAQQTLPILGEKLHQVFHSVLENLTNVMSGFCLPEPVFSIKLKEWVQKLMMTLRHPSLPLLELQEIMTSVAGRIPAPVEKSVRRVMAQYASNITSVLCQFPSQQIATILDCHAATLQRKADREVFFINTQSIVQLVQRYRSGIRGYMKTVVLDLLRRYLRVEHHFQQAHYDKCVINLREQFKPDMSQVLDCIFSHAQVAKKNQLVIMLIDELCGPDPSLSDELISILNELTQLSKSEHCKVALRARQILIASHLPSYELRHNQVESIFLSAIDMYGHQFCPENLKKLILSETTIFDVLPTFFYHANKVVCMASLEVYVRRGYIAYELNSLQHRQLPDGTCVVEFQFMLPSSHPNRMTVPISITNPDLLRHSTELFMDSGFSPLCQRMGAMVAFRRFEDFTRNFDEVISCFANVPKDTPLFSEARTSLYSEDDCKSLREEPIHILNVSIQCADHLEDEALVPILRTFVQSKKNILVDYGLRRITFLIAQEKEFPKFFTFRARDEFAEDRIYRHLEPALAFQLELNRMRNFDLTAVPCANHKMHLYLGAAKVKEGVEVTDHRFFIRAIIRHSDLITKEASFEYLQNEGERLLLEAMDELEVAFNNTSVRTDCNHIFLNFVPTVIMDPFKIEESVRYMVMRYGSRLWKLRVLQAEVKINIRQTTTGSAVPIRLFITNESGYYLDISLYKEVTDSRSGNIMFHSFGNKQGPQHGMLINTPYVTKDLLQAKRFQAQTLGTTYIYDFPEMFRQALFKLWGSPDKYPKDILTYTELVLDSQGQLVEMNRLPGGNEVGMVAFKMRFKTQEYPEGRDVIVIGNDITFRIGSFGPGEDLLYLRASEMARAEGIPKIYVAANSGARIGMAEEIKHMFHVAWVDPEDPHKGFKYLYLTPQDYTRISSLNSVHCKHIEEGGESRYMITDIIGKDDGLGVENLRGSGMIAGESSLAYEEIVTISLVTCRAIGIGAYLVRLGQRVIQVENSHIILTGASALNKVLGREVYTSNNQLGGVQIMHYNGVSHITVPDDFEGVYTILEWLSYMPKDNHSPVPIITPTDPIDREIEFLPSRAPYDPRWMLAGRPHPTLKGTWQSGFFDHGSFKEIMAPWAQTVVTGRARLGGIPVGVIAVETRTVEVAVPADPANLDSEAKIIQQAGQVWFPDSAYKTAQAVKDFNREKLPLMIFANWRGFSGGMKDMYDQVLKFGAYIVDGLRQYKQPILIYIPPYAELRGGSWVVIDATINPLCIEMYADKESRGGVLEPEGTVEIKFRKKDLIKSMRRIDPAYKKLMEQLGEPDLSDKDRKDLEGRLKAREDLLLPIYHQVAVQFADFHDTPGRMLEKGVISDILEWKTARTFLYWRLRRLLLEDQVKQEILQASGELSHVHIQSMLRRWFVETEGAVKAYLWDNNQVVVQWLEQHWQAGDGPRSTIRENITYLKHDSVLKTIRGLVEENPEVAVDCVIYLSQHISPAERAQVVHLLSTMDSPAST
Summary of the method: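 Enzyme (human ACC1 or ACC2) and compound, serially diluted 1:3 over 11 points from a 600 uM DMSO stock, were preincubated 15 min before substrate addition.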

SMILES | IC50 [1] [nM] | IC50 [2] [nM]
COc1ccccc1[C@H](Cn1c(=O)n(C(C)(C)C(=O)N2CC(O)C2)c(=O)c2c(C)c(-c3ncco3)sc21)OC(C)C [I-241, 3-[1-(3-hydroxyazetidin-1-yl)-2-methyl-1-oxopropan-2-yl]-1-[(2R)-2-(2-methoxyphenyl)-2-(propan-2-yloxy)ethyl]-5-methyl-6-(1,3-oxazol-2-yl)-1H,2H,3H,4H-thieno[2,3-d]pyrimidine-2,4-dione] | < 100 | < 100
COc1ccccc1[C@H](Cn1c(=O)n(C(C)(C)C(N)=O)c(=O)c2c(C)c(-c3ncco3)sc21)O[C@H]1CC[C@@H](O)CC1 [I-279, 2-[1-[(2R)-2-[(4-hydroxycyclohexyl)oxy]-2-(2-methoxyphenyl)ethyl]-5-methyl-6-(1,3-oxazol-2-yl)-2,4-dioxo-1H,2H,3H,4H-thieno[2,3-d]pyrimidin-3-yl]-2-methylpropanamide] | < 100 | < 100
CCOC(=O)c1sc2c(c1C)c(=O)n(Cc1nnn[nH]1)c(=O)n2CCc1ccccc1 [I-45, ethyl 5-methyl-2,4-dioxo-1-(2-phenylethyl)-3-(1H-1,2,3,4-tetrazol-5-ylmethyl)-1H,2H,3H,4H-thieno[2,3-d]pyrimidine-6-carboxylate] | < 5000 | < 5000
Cc1c(-c2ncco2)sc2c1c(=O)n(C(C)(C)C(N)=O)c(=O)n2C[C@H](OC1CCOCC1)c1ccccc1OC(C)C [I-292, 2-methyl-2-[5-methyl-1-[(2R)-2-(oxan-4-yloxy)-2-[2-(propan-2-yloxy)phenyl]ethyl]-6-(1,3-oxazol-2-yl)-2,4-dioxo-1H,2H,3H,4H-thieno[2,3-d]pyrimidin-3-yl]propanamide] | < 100 | < 100
COc1ccccc1[C@H](Cn1c(=O)n(Cc2nnc[nH]2)c(=O)c2c(C)c(-c3ncco3)sc21)OC1CCOCC1 [I-289, 1-[(2R)-2-(2-methoxyphenyl)-2-(oxan-4-yloxy)ethyl]-5-methyl-6-(1,3-oxazol-2-yl)-3-(4H-1,2,4-triazol-3-ylmethyl)-1H,2H,3H,4H-thieno[2,3-d]pyrimidine-2,4-dione] | < 100 | < 100
Cc1c(-c2ncco2)sc2c1c(=O)n(C(C)(C)C(=O)O)c(=O)n2C[C@H](OC(C)C)c1ccccc1OC(F)(F)F [I-265, (R)-2-(1-(2-isopropoxy-2-(2-(trifluoromethoxy)phenyl)ethyl)-5-methyl-6-(oxazol-2-yl)-2,4-doxo-1,2-dihydrotheno[2,3-d]pyrimidin-3(4H)-yl)-2-methylpropanoic acid] | < 1000 | –
Cc1c(-c2ncco2)sc2c1c(=O)n(C(C)(C)C(=O)O)c(=O)n2C[C@H](OC1CCOCC1)c1ccccc1C(F)(F)F [I-266, 2-methyl-2-[5-methyl-1-[(2R)-2-(oxan-4-yloxy)-2-[2-(trifluoromethyl)phenyl]ethyl]-6-(1,3-oxazol-2-yl)-2,4-dioxo-1H,2H,3H,4H-thieno[2,3-d]pyrimidin-3-yl]propanoic acid] | < 1000 | –
Cc1c(-c2ncco2)sc2c1c(=O)n(C(C)(C)C(N)=O)c(=O)n2C[C@H](OC1CCOCC1)c1ccccc1Cl [I-252, 2-[1-[(2R)-2-(2-chlorophenyl)-2-(oxan-4-yloxy)ethyl]-5-methyl-6-(1,3-oxazol-2-yl)-2,4-dioxo-1H,2H,3H,4H-thieno[2,3-d]pyrimidin-3-yl]-2-methylpropanamide] | < 1000 | –
COc1ccccc1[C@H](Cn1c(=O)n(C(C)(C)C(=O)O)c(=O)c2c(C)c(-c3ncco3)sc21)OC1CCC(=O)CC1 [I-276, (R)-2-(1-(2-(2-methoxyphenyl)-2-((4-oxocyclohexyl)oxy)ethyl)-5-methyl-6-(oxazol-2-yl)-2,4-dioxo-1,2-dihydrotheno[2,3-d]pyrimidin-3(4H)-yl)-2-methylpropanoic acid] | < 100 | –
COc1ccccc1[C@H](Cn1c(=O)n(C(C)(C)C(=O)O)c(=O)c2c(C)c(-c3ncco3)sc21)OCC1COC1 [I-269, (R)-2-(1-(2-(2-methoxyphenyl)-2-(oxetan-3-ylmethoxy)ethyl)-5-methyl-6-(oxazol-2-yl)-2,4-dioxo-1,2-dihydrothieno[2,3-d]pyrimidin-3(4H)-yl)-2-methylpropanoic acid] | < 5000 | –
COc1ccccc1[C@@H](O)Cn1c(=O)n(C(C)(C)C(=O)O)c(=O)c2c(C)c(-c3ncco3)sc21 [I-248, 2-[1-[(2R)-2-hydroxy-2-(2-methoxyphenyl)ethyl]-5-methyl-6-(1,3-oxazol-2-yl)-2,4-dioxo-1H,2H,3H,4H-thieno[2,3-d]pyrimidin-3-yl]-2-methylpropanoic acid] | < 1000 | –
COc1cc(Br)ccc1[C@H](Cn1c(=O)n(C(C)(C)C(=O)O)c(=O)c2c(C)c(-c3ncco3)sc21)OC1CCOCC1 [I-270, 2-[1-[(2R)-2-(4-bromo-2-methoxyphenyl)-2-(oxan-4-yloxy)ethyl]-5-methyl-6-(1,3-oxazol-2-yl)-2,4-dioxo-1H,2H,3H,4H-thieno[2,3-d]pyrimidin-3-yl]-2-methylpropanoic acid] | < 5000 | –

Other lines, results leading:

IC50 [1] [nM] | IC50 [2] [nM] | SMILES
< 100 | < 1000 | CCOc1ccccc1CCn1c(=O)n(C(C)(C)C(=O)O)c(=O)c2c(C)c(-c3ncco3)sc21 [I-135, 2-[1-[2-(2-ethoxyphenyl)ethyl]-5-methyl-6-(1,3-oxazol-2-yl)-2,4-dioxo-1H,2H,3H,4H-thieno[2,3-d]pyrimidin-3-yl]-2-methylpropanoic acid]
< 100 | < 1000 | CCOC(=O)c1sc2c(c1C)c(=O)n(C(C)(C)C(=O)O)c(=O)n2C[C@H](OCC(C)C)c1ccccc1 [I-123, 2-[6-(ethoxycarbonyl)-5-methyl-1-[(2R)-2-(2-methylpropoxy)-2-phenylethyl]-2,4-dioxo-1H,2H,3H,4H-thieno[2,3-d]pyrimidin-3-yl]-2-methylpropanoic acid]
< 100 | < 100 | COc1ccccc1[C@H](Cn1c(=O)n(CC(N)=O)c(=O)c2c(C)c(-c3ncco3)sc21)OC1CCOCC1 [I-288]
< 100 | < 1000 | Cc1c(-c2ncco2)sc2c1c(=O)n(C(C)(C)C(=O)O)c(=O)n2C[C@H](OC1CCCCC1)c1ccccc1 [I-140, 2-[1-[(2R)-2-(cyclohexyloxy)-2-phenylethyl]-5-methyl-6-(1,3-oxazol-2-yl)-2,4-dioxo-1H,2H,3H,4H-thieno[2,3-d]pyrimidin-3-yl]-2-methylpropanoic acid]
< 100 | < 1000 | CCc1ccccc1CCn1c(=O)n(C(C)(C)C(=O)O)c(=O)c2c(C)c(-c3ncco3)sc21 [I-133, 2-[1-[2-(2-ethylphenyl)ethyl]-5-methyl-6-(1,3-oxazol-2-yl)-2,4-dioxo-1H,2H,3H,4H-thieno[2,3-d]pyrimidin-3-yl]-2-methylpropanoic acid]
< 100 | – | COc1ccccc1[C@H](Cn1c(=O)n(C(C)(C)C(=O)N2CCC2)c(=O)c2c(C)c(-c3ncco3)sc21)OCC1CCOCC1 [I-275, 3-[1-(azetidin-1-yl)-2-methyl-1-oxopropan-2-yl]-1-[(2R)-2-(2-methoxyphenyl)-2-(oxan-4-ylmethoxy)ethyl]-5-methy-6-(1,3-oxazol-2-yl)-1H,2H,3H,4H-thieno[2,3-d]pyrimidine-2,4-dione]
< 100 | – | Cc1c(-c2ncco2)sc2c1c(=O)n(C(C)(C)C(=O)N1CCC1)c(=O)n2C[C@H](OC1CCOCC1)c1ccccc1O [I-284, 3-[1-(azetidin-1-yl)-2-methyl-1-oxopropan-2-yl]-1-[(2R)-2-(2-hydroxyphenyl)-2-(oxan-4-yloxy)ethyl]-5-methyl-6-(1,3-oxazol-2-yl)-1H,2H,3H,4H-thieno[2,3-d]pyrimidine-2,4-dione]
